{"source": "patent US6881414B2", "about": "“Mild cosmetic composition with stabilized retinoids” (Unilever Home & Personal Care USA, division of Conopco, Inc., priority 2000, dated 2005)", "key": {"LRAT": {"molecular_target": "T1, LRAT (Bos taurus, UniProt Q9BGL2)", "T1 construct": "followed by approximately 15 μg of RPE microsomal protein; tissue W. L. Lawson Co; host or cells: bovine retinal pigment epithelium microsomes", "T1 sequence (Q9BGL2 1-230)": "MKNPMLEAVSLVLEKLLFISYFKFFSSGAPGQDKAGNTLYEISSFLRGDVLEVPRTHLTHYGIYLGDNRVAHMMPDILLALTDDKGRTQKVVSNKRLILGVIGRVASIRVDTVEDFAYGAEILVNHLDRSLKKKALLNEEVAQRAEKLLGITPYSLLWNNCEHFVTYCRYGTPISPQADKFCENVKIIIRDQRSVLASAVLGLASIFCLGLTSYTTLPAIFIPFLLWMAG", "assay": "LRAT activity assay, RPE microsomes (to identify B1)", "format": "biochemical, bovine", "conditions": "for % Inhibition LRAT (10 μm): compound 10 μm; for % Inhibition LRAT (100 μm): compound 100 μm", "protocol": "50 frozen hemisected bovine eyecups, with the retina and aqueous humor removed were obtained from W. L. Lawson Co., Lincoln, Nebr., U.S.A. The eyes were thawed overnight and the colored iridescent membrane was removed by peeling with forceps. […] The cell suspension was added to the iridescent membranes and the suspension was stirred for several minutes in a beaker with a Teflon stir bar. The suspension was filtered through a coarse filter (Spectra/Por 925 μl pore size polyethylene mesh) to remove large particles, and the resulting darkly colored suspension was homogenized using a Glas-Col with a motor driven Teflon homogenizer. The cell homogenate was centrifuged for 30 min. at 20,000 g (Sorvaal model RC-5B centrifuge with an SS34 rotor in 2.5×10 cm tubes at 14,000 RPM). The resulting supernatant was subjected to further centrifugation for 60 min. at 150,000 g (Beckman model L80 Ultracentrifuge with an SW50.1 rotor in 13×51 mm tubes at 40,000 RPM). The resulting pellets were dispersed into ˜5 mL 0.1M PO4/5 mM DTT, pH 7 buffer using a Heat Systems Ultrasonics, Inc. model W185D Sonifier Cell Disruptor, and the resulting microsomal dispersion was aliquoted into small tubes and stored at −70° C. The protein concentrations of the microsomes were determined using the BioRad Dye binding assay, using BSA as a standard.\n2.3 Assay for ARAT and LRAT Activity (To Identify B1)\nThe following buffer was prepared and stored at 4° C.: 0.1M PO4/5 mM dithiothreitol, pH 7.0 (PO4/DTT). On the day of the assay, add 2 mg BSA per mL of buffer to give a PO4/DTT/BSA working buffer. 1 mM retinol substrate was prepared in acetonitrile and stored in amber bottles under nitrogen gas at −20° C. Solutions of 4 mM Palmitoyl-CoA in working buffer (stored in aliquots) and 4 mM dilauroyl phosphatidyl choline in ethanol were prepared and stored at −20° C. Inhibitors were prepared as 10 mM stock solutions in water, ethanol, acetonitrile or DMSO. The quench solution was prepared using pure ethanol containing 50 μg/mL butylated hydroxytoluene (BHT), and a hexane solution containing 50 μg/mL BHT was used for the extractions.\nIncubate for 5 min. at 37° C. to equilibrate the reaction temperature and then add 5 μl 1 mM retinol. Cap the vials, vortex for 5 seconds and incubate for 30-90 minutes at 37° C. Quench the reaction by adding 0.5 mL ethanol/BHT. Extract the retinoids by adding 3 mL hexane/BHT, vortex the tubes for several seconds several times and centrifuge the tubes at low speed for 5 min. to quickly separate the layers. Remove the upper hexane layer into a clean vial, and re-extract the aqueous layer with another 3 mL hexane/BHT, as described above. Combine the hexane layers and evaporate the hexane by drying at 37° C. under a stream of nitrogen gas on a heated aluminum block. Store the dried residue at −20° C. until HPLC analysis. Quantitate the amount of retinyl palmitate and retinyl laurate for ARAT and LRAT activity, respectively, by integration of the HPLC signal as described below.\nNote that the incubation solution contains 40 μM acyl donor, 100 μM or less inhibitor, 10 μM retinol, approximately 30 μg/mL microsomal protein, and nearly 0.1M PO4, pH 7/5 mM DTT/2 mg/mL BSA. […]\nSamples for retinoid quantitation by HPLC were prepared by dissolving the residue in each vial with 100 μL of methanol. […] Aliquots of 60 μL were injected immediately and analyzed for retinoid content.\nTwo HPLC protocols were used for retinoid analysis. […] The column eluate was monitored from 300 nm to 400 nm."}, "TGase I in keratinocytes": {"tested_on": "TGase I in keratinocytes", "assay": "Transglutaminase (TGase I) ELISA assay in cultured keratinocytes", "format": "cell-based", "conditions": "added effect of booster+retinol induced TGase inhibition over retinol alone", "protocol": "An ELISA based TGase I assay, using a TGase I antibody, was used to assess the state of differentiation of the cultured keratinocytes in the examples that follow.\nKeratinocytes (cultured as described above) were plated in 96 well plates at a density of 4,000-5,000 cells per well in 200 μl media. After incubation for two to three days, or until cells are ˜50% confluent, the media was changed to media containing test compounds (five replicates per test). The cells were cultured for a further 96 hours after which time the media was aspirated and the plates stored at −70° C. Plates were removed from the freezer, and the cells were washed twice with 200 μl of 1×PBS. The cells were incubated for one hour at room temperature (RIT) with TBS/5% BSA (wash buffer, bovine serum albumin). Next the TGase primary antibody was added: 50 μl of monoclonal anti-Tgase I Ab B.C. diluted 1:2000 in wash buffer. The primary antibody was incubated for 2 hours at 37° C. and then rinsed 6× with wash buffer. Cells were then incubated with 50 μl of secondary antibody (Fab fragment, peroxidase conjugated anti-mouse IgG obtaining from Amersham) diluted 1:4,000 in wash buffer for two hours at 37° C., then rinsed three times with wash buffer. Following the rinse with washing buffer, the cells were rinsed 3× with PBS. […] TGase levels were determined and expressed as percentage control."}, "CRABPII": {"molecular_target": "T2, CRABPII (Homo sapiens, UniProt P29373)", "T2 construct": "made in house; host or cells: E. coli BLR(DE3)pLysS", "T2 sequence (P29373 1-138)": "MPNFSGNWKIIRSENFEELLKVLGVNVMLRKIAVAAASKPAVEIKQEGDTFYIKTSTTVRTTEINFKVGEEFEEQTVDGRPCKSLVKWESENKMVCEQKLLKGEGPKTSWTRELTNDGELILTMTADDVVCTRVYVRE", "assay": "CRABPII antagonist radioactive binding assay (to identify B4)", "conditions": "competition with radioactive all trans retinoic acid; ligand excess ratio not given", "source_text": "2.6 Assay for CRABPII Antagonists (To Identify B4)\n2.6.1. Synthesis of CRABPII\nThe gene CRABPII was cloned in pET 29a-c(+) plasmid (Novagen). The cloned gene was under control of strong bacteriophage T7 transcription and translation signals. The source of T7 polymerase was provided by the host cell E.coli BLR(DE3)pLysS (Novagen). The latter has a chromosomal copy of T7 polymerase under lacUV5 control, induced by the presence of IPTG.\nThe plasmid was transferred into E. coli BLR(DE3)pLysS cells by transformation according to the manufacturer protocol (Novagen).\nAn overnight culture of the transformed cells was diluted 1:100 into 2×YT containing 50 μg/mL kanamycin and 25 μg/mL chloramphenicol. The cells grew while shaking at 37° C. until the OD at 600 nm reached 0.6-0.8. Then IPTG was added to a final concentration of 1 mM and the culture was incubated for an additional two hours. The cells were harvested by centrifugation at 5000 g for 10 minutes at room temperature. The pellet was stored at −20° C.\nPurification was performed according to the method described in A. W. Norris & E. Li, Generation and characterization of cellular retinoic acid-binding proteins from Escherichia coli expression systems”. Methods Enzymol. 282:3-13 (1997).\nThe frozen pellet was thawed at RT and resuspended in 1-2 pellet volumes of freshly prepared lysis buffer (50 mM Tris-HCl, pH 8, 10% (w/v) sucrose, 1 mM EDTA, 0.05% (w/v) sodium azide, 0.5 mM DTT, 10 mM MnCl2, 2.5 mM phenylmethylsulfonyl fluoride, 2.5 mM benzamidine, 6 μg/mL DNase). The lysate was incubated for 30 min at room temperature. Further lysis was accomplished by sonication (six 30-sec bursts at […] alternated with five 30-sec delay on ice). […]\nThe supernatant from step a. was loaded onto a 2.5×100 cm column of sephacryl S-300 (Pharmacia) at room temperature. […] Collected 2-mL fractions were checked for ultraviolet absorbance at 280 nm. […]\nFor the competitive assay, another ligand in excess (6670:1, 670:1 or 70:1) was added to the mix. […] The radioactivity of the filtrate was measured by scintillation counter."}, "[1]": {"assay": "Retinoid solubility in oil (UV spectroscopy of filtrate)", "format": "physicochemical", "method": "As an illustration, solubility of retinol crystals in varying oils is as follows:\nRetinoid solubility in oil is determined by the following procedure. A known weight of pure retinoid in excess of the expected solubility limit in the oil is added in an oil. Methanol is added to the mixture to dissolve all retinoid crystals. Nitrogen sparging is used to ensure all methanol was evaporated from the oil. Retinoid is allowed to recrystallize overnight. The sample is filtered through a 0.45 micron filter. Known dilutions of the filtrate in isopropanol are measured by UV spectroscopy at an appropriate wavelength (325 nm for retinol) and the concentration of retinoid determined against calibration standards of retinoid in isopropanol."}}, "data": [{"molecule": "CC(/C=C/C=C(\\C)C(=O)O)=C\\C=C\\C=C(C)\\C=C\\C=C(/C)C(=O)O", "note": "[Crocetin]", "values": [{"measurement": "% Inhibition LRAT (10 μm)", "setting": "LRAT", "value": 0, "unit": "%"}]}, {"molecule": "CN1CCN(C)C1=O", "note": "[Dimethyl Imidazolidinone]", "values": [{"measurement": "% Inhibition Overall TG (- ROH/RE)", "setting": "TGase I in keratinocytes", "value": 22, "unit": "%"}]}, {"molecule": "CCCCCCCC/C=C/CCCCCCCC(=O)O", "note": "[Elaidic Acid]", "values": [{"measurement": "% Inhibition CRABPII", "setting": "CRABPII", "value": ">50", "unit": "%"}]}, {"molecule": "CC(C)=CCCC(C)=CCCC(C)=CCO", "note": "[Farnesol]", "values": [{"measurement": "% Inhibition LRAT (10 μm)", "setting": "LRAT", "value": 10, "unit": "% +/− 7"}]}, {"molecule": "CC(C)=CCC/C(C)=C/CC/C(C)=C/CC/C(C)=C/CO", "note": "[Geranyl Geraniol]", "values": [{"measurement": "% Inhibition LRAT (10 μm)", "setting": "LRAT", "value": 16, "unit": "% +/− 9"}]}, {"molecule": "O=C(O)CCCCCCCCCCCCCCC(=O)O", "note": "[Hexadecanedioic Acid]", "values": [{"measurement": "% Inhibition CRABPII", "setting": "CRABPII", "value": ">50", "unit": "%"}]}, {"molecule": "CC(C)CCCCCCCCCCCCCCC(=O)O", "note": "[Isostearic Acid]", "values": [{"measurement": "% Inhibition CRABPII", "setting": "CRABPII", "value": ">50", "unit": "%"}]}, {"molecule": "C=CC(C)(O)CCC=C(C)C", "note": "(centres unmarked) [Linatool]", "values": [{"measurement": "% Inhibition LRAT (100 μm)", "setting": "LRAT", "value": 0, "unit": "%"}]}, {"molecule": "CCCCC/C=C\\C/C=C\\CCCCCCCC(=O)N(CCO)CCO", "note": "[Linoleamide-DEA, Linoleoyl Diethanolamide]", "values": [{"measurement": "% Inhibition Overall TG (- ROH/RE)", "setting": "TGase I in keratinocytes", "value": 59, "unit": "%"}]}, {"molecule": "O=C1C[C@@H](c2ccc(O)cc2)Oc2cc(O)cc(O)c21", "note": "[Naringenin]", "values": [{"measurement": "% Inhibition LRAT (100 μm)", "setting": "LRAT", "value": 14, "unit": "%"}]}, {"molecule": "CC1=C(/C=C/C(C)=C/C=C/C(C)=C/CO)C(C)(C)CCC1", "note": "[retinol]", "values": [{"measurement": "Solubility of retinol crystals in oil", "setting": "[1]; in C12-15 Alkyl benzoate", "value": 85, "unit": "wt %"}, {"measurement": "Solubility of retinol crystals in oil", "setting": "[1]; in Cetiol OE", "value": 80, "unit": "wt %"}, {"measurement": "Solubility of retinol crystals in oil", "setting": "[1]; in Cyclomethicone", "value": 2.7, "unit": "wt %"}, {"measurement": "Solubility of retinol crystals in oil", "setting": "[1]; in Dimethicone", "value": 0.49, "unit": "wt %"}, {"measurement": "Solubility of retinol crystals in oil", "setting": "[1]; in Isostearyl palmitate", "value": 44, "unit": "wt %"}, {"measurement": "Solubility of retinol crystals in oil", "setting": "[1]; in Mineral oil", "value": 34.2, "unit": "wt %"}, {"measurement": "Solubility of retinol crystals in oil", "setting": "[1]; in Triolein/Squalene (6:1)", "value": 56.4, "unit": "wt %"}]}]}
